According to PMC10606064, “2-Aminothiazole-Flavonoid Hybrid Derivatives Binding to Tau Protein and Responsible for Antitumor Activity in Glioblastoma” (International Journal of Molecular Sciences, 2023):

Assays:
[1] = test system: caspase 3 protein (Casp3) in U87 shCTRL and U87 shTau cells; assay: Caspase 3 expression by Western blot (apoptosis); assay type: cell-based, human; details: both cell types, 48 h treatment
Experimental: Cells were lysed with freshly made RIPA buffer derivative (4.3 mL of TBS 1×, 50 µL of SDS 10%, 10 µL of EDTA 0.5 M, 500 µL of Triton 10×, and 1% inhibitors of protease and phosphatase). After 30 min of lysis at 4 °C under agitation, lysates were centrifuged at 10,000× g for 10 min at 4 °C. Equivalent amounts of proteins from the supernatant fraction were subjected to Western blot analysis. Protein samples were loaded (40 μg/lane) and separated on 10 or 12% sodium dodecyl sulfate-polyacrylamide gels. The separated proteins were transferred onto nitrocellulose blotting membrane using the Bio-Rad transfer system. Before blocking, the blots were stained with Ponceau red to visualize transfer efficiency. […] The band intensity was quantified using the ImageJ v1.50g software. […] The band intensity was quantified using the NIH ImageJ v1.50g software. […]
death. (A) The apoptotic protein casp ase 3 (Casp 3) was analy zed by western blot of U87 shCTRL and U87 shTau cells: for each s ample t he ratio between the amount of Casp3 and GAPDH was calculated as relative fold of the reference value (with or without the compound); n = 3 lysates, ns: non-si gnificant. […]
blot used for quantification. (B) The activity of necrotic LDH protein was analy zed by fluorescence emission in U87 shCTRL (upper panel) and U87 shTau (lower panel) cells. […]

U87 shTau cells = assay: Microtubule network analysis (alpha-tubulin immunofluorescence), U87 shTau; assay type: cell-based, human; details: 0–20 µM, 24 h
Experimental: For indirect immunofluorescence of mitochondria, 10^4 cells were plated on cover glass and incubated for 24 h with compounds. Cells were then fixed in 4% formaldehyde (in PBS pH 7.4) for 20 min at RT, permeabilized with PBS-Triton X-100 0.5% for 10 min at RT. Immunostaining was carried out overnight at 4 °C with a primary anti-citrate synthase antibody (dilution 1:400 in PBS-BSA 3%; SC390693; SantaCruz Biotechnologies, Heidelberg, Germany). […] Each image was recorded with the CLSM’s spectral mode selecting specific domains of the emission spectrum. The Alexafluor488 and FITC fluorophores were excited at 488 nm with an argon laser, and fluorescence emission was collected between 496 nm and 535 nm. The TRITC fluorophore was excited at 543 nm with a helium–neon laser, and fluorescence was collected between 560 and 620 nm. […]
The analyses of mitochondria and microtubule networks were performed using, respectively, the ‘Mitochondria analyzer’ plugin for Fiji v1.54f software and the method described in our earlier work. Briefly, a series of images were transferred to the software and corrected for background fluorescence intensity contribution. Next, the surface of 50 single cells was measured by considering the cell shape as the boundary of labelling of actin or α-tubulin cytoskeletons (respectively for measurement on mitochondria or microtubules). […]

U138 glioblastoma cells = assay: MTT cell viability assay, U138; assay type: cell-based; details: Homo sapiens, U138, 72 h, mean ± SEM, read-out: IC50 (metabolic activity)
Experimental: Cells harvested from sub-confluent monolayers were seeded at 15,000 cells per mL in a 96-well microtiter plate (Cambridge Technology, Labège, France) and cultured for 24 h under standard conditions. Standard medium was then replaced by fresh medium containing no drugs or compounds at different concentrations. The surviving cells were quantified after 72 h by the MTT assay, according to the manufacturer’s instructions. Briefly, 20 µL of 3-(4,5-diMethylThiazol-2-yl)-2,5diphenyl Tetrazolium bromide (MTT) solution at 5 mg.mL^−1 was added to cells for 3 h at 37 °C. The supernatant was discarded and replaced by 100 µL of dimethyl sulfoxide to dissolve formazan crystals. The absorbance was then read at 600 nm by spectrophotometry. For all concentrations of a given compound, cell viability was expressed as the percentage of the ratio between the mean absorbance of treated cells and the mean absorbance of untreated cells. Three independent experiments were performed, and the data were expressed as percentage of survival (using the untreated cells as 100%) and subjected to statistical analysis (n = 3). The IC50 was calculated using the Chou and Talalay method.

IC50 (U138 glioblastoma cells) [nM]	SMILES	expression of caspase 3 (Casp3) [1]	change of microtubule network (U87 shTau cells)
> 100000	Nc1nc2ccc3oc(C(=O)O)cc(=O)c3c2s1 [Compound 5]	no change in the expression of Casp3	no change
2300 ± 1000	Nc1nc2ccc3oc(-c4cccc(Oc5ccccc5)c4)cc(=O)c3c2s1 [Compound 2, 2-amino-7-(3-phenoxyphenyl)-9H-chromeno [6,5-d]thiazol-9-one]	no change in the expression of Casp3	no change
